The source of these data is publication PMC6312359, “Diisopropylphenyl-imidazole (DII): A new compound that exerts anthelmintic activity through novel molecular mechanisms” (PLoS Neglected Tropical Diseases, 2018).

The test system of experiment [1] is Escherichia coli ATCC 25922. The experiment is described as follows: Minimum inhibitory and bactericidal concentrations, microdilution. Format: cell-based. The conditions noted are these: 24 h at 37°C; for MBC / MIC: Escherichia coli, ATCC25922. On the procedure:
(§1) The strains used in this study were Escherichia coli ATCC 25922 and Staphylococcus aureus ATCC 25923, kindly provided by Dr. Ziegler (Bacillus Genetic Stock Center, The Ohio State University). Stocks were stored in Mueller Hinton Broth (MHB, Biokar Diagnostics, France) supplemented with glycerol 20% at -70°C. Before running each test, the strains were incubated for 48 h at 37°C in MHB. Finally, the bacterial strains were sub-cultured in MHB at 37°C for 24 h. The solutions of antimicrobial agents and imidazolium salts were prepared following the Clinical and Laboratory Standards Institute (CLSI) guidelines for determination of Minimum Inhibitory Concentrations by the microdilution method (CLSI 2009). […] Cultures were incubated as described above and adjusted to OD625nm ~ 0.08–0.13 by the direct colony suspension method in saline water and finally adjusted to 2–8 10^5 CFU/ml by diluting 1:150 in MHB before testing. A volume of 100 μl of each sample dilution in saline water was transferred to the microplate well. Finally, an equal volume of the inoculum was added. The MIC was the lowest concentration at which there was no visible growth when compared with controls after 24 h at 37°C. To assess the minimum bactericidal concentration (MBC), 20 μl aliquots were taken from the wells where no visible growth was observed, seeded on petri dishes and covered with MH agar (MHA) at 45°C. The compounds were considered bactericidal at the concentration at which no visible colony was observed on the plate after 24 h at 37°C. All conditions were run at least in duplicate. The results were obtained from at least 3 independent experiments.
A general note: In broth dilution the organism is exposed to a series of concentrations in liquid medium.

Experiment [2] deals with Staphylococcus aureus ATCC 25923. The description is as above. Format: cell-based. Particulars: ATCC25923, 24 h at 37°C; for MBC: read-out: MBC S. aureus; for MIC: read-out: MIC S. aureus. As for the experimental part:
as §1

The test system of experiment [3] is C. elegans. The arrangement: method as in PMID 21195075, PMID 23869246. The conditions noted are these: 24 h, even at millimolar concentrations, ref [39], [41]; cited from earlier work.
The test system of experiment [4] is C. elegans. The experiment is described as follows: Egg-laying assays. It counts as in vivo, Caenorhabditis elegans. Particulars: gravid worms. On the procedure:
Age-synchronized gravid worms were transferred to solid NGM plates containing different drug concentrations (100–300 μM). Each concentration was evaluated in triplicate and DMSO was used as a control. After 1 h, the number of laid eggs per worm was counted. This experiment was independently repeated three times.

Experiment [5] has as its system C. elegans. Kind of experiment: Acute paralysis assays. It counts as in vivo, Caenorhabditis elegans. As for the experimental part:
Acute paralysis assays were carried out in microtiter plates containing the drug dissolved in M9 buffer. […] Each drug concentration was tested in two wells (containing 30 animals each) within a single experiment. […] The experiment was independently repeated at least three times.

For experiment [6], the system named is C. elegans. Kind of experiment: Body length measurements. Format: in vivo, Caenorhabditis elegans. Particulars: 600 μM, 2 h. As for the experimental part: Vehicle (0.75% DMSO) was used as a control. After 2 h, images were acquired and body length was measured using FIJI-ImageJ software. At least three independent experiments were analyzed.
For experiment [7], the system named is C. elegans. The experiment is described as follows: Worm cut preparation paralysis. Format: in vivo, Caenorhabditis elegans. Particulars: 10 min; DII 600 μM, levamisole 10 μM. On the procedure: Cutworm assays were performed as previously described with slight modifications. Briefly, synchronized young adult animals were mounted in a glass microscope slide containing Artificial Perienteric Fluid (APF) (67 mM NaCl, 67 mM NaCH3COOH, 3 mM KCl, 15.7 mM MgCl2, 3 mM CaCl2 and 5 mM Tris, pH 7.6). 10 animals were severed between the middle and tail, approximately two-thirds from the anterior end. Worms were subsequently transferred to a multi-well plate containing APF or drug-APF and paralysis was evaluated after 10 minutes. All experiments were performed at least three times.

For the next experiment, the system named is E. coli OP50. The experiment is described as follows: OP50 growth in screening wells (qualitative). It counts as cell-based, Escherichia coli. Particulars: 150 μg/ml, qualitative observation. The text has this: During the screening assays, we qualitatively noticed that OP50 growth was inhibited in wells containing MI. This effect was not observed with DII. To quantify this observation, we determined minimum inhibitory concentration (MIC) and minimum bactericidal concentration (MBC) of both compounds in E. coli cultures (Fig 2A). […] Similar values were obtained when we performed these assays on S. aureus, a Gram-positive bacteria (Fig 2A). […] As we are here screening for specific anthelmintic activity, we restricted our further analysis to compounds that appear to exert nematicidal action without obvious lethal effects on other organisms. Therefore, we focused our studies only on DII, relegating the evaluation of MI as a potential anthelmintic drug.

For experiment [8], the system named is C. elegans. The experiment is described as follows: Screening imidazole compounds: worm survival. The conditions noted are these: 150 μg/ml, 72 h, 20°C, young adult wild-type worms, liquid medium (S-Basal) with E. coli OP50. Format: in vivo, Caenorhabditis elegans. On the procedure:
100–150 young adult wild-type worms were exposed to these compounds (150 μg/ml) in liquid medium (S-Basal) containing E. coli OP50. Micromolar concentrations for each compound are: 487 μM for 1, 428 μM for 2, 410 μM for 3, 375 μM for 4, 789 μM for 5, 735 μM for 6, 389 μM for 7, 319 μM for 8, 263 μM for 9, 806 μM for 10 and 657 μM for 11. Compounds were dissolved in water or DMSO according to their solubility. After 72 h, animal survival was analyzed. An animal was considered dead if it made no movement in response to gentle prodding with a worm pick. At least three independent experiments were analyzed.
We exposed 100–150 young adult worms to these compounds in liquid medium (S-Basal) containing the bacteria E. coli OP50 as a food source. After 72 h at 20°C, we analyzed worm survival (Fig 1B). […] The drug concentration chosen for this screening was 150 μg/ml, which is similar to those used in other screening studies. The corresponding molar concentration for each compound is detailed in Materials and Methods. Depending on their solubility properties, the compounds were dissolved either in water or DMSO (up to 0.75% final concentration).

Converted amounts (≈) assume the structure as drawn. “And” between values parts separate entries of the source, which are not always exact repeats. Identical values can stand only once. Like-named read-outs stand apart in the source and are kept apart here. Where only a bound is given, the exact number is not on record here.

As usually defined, the MBC is the lowest tested concentration that kills the bacteria rather than only halting them. A word on the MIC: it is the lowest concentration that inhibits growth of the organism. As for `O=C(O)c1cn(C2CC2)c2cc(N3CCNCC3)c(F)cc2c1=O` [cipro., ciprofloxacin, reference compound], the MBC in experiment [1] and in experiment [2] was 1 µg/mL (≈ 3.02 µM) throughout. Also, the results for the MIC in experiment [1] and in [2] were 0.25 µg/mL (≈ 0.754 µM) and 0.5 µg/mL (≈ 1.51 µM), respectively.

In the case of `CC(=O)Oc1ccccc1C(=O)Nc1ncc([N+](=O)[O-])s1` [nitazoxanide], the C. elegans death entry in the experiment with C. elegans [3] is “less than 25%”.

The term EC50 denotes the midpoint of the concentration-response curve. In the case of `c1ccc([C@H]2CN3CCSC3=N2)cc1` [levamisole], the “laid eggs in 1 h, fold more than controls” value with C. elegans [4] (100 μM) amounted to 3.8 fold; in the experiment with C. elegans [4] (300 μM), 3.2 fold. For the same molecule, the “paralysis in CB407 unc-49(e407)III hypersensitive strain” value in the experiment with C. elegans [5] (100 μM, 10 min) is listed as “hypersensitive”. In addition, in the experiment with C. elegans [5] (600 μM, 10 min), the paralyzed animals came out at 100%. Moreover, the EC50 in the experiment with C. elegans [5] (10 min, L4 wild-type, Fig 4B, read-out: EC50 acute paralysis) came to 63.6 µM; in the experiment on C. elegans [5] (Caenorhabditis elegans, 10 min, Fig 4E black circle (probably levamisole alone), 10 min, read-out: EC50 levamisole paralysis), 60 ± 1.12 µM; in the experiment on C. elegans [5] (Caenorhabditis elegans, 10 min, Fig 4E dark pink triangle up (constant DII, probably 100 μM), 10 min, read-out: EC50 levamisole paralysis in presence of DII), 66 ± 1.15 µM; in the experiment on C. elegans [5] (Caenorhabditis elegans, 10 min, Fig 4E light pink triangle down (constant DII, probably 200 μM), 10 min, read-out: EC50 levamisole paralysis in presence of DII) it was 62.2 ± 1.14 µM; in the experiment on C. elegans [5] (Caenorhabditis elegans, 10 min, L4 wild-type, Fig 4B, read-out: EC50 acute paralysis), 63.6 ± 1.1 µM; with C. elegans [5] (Caenorhabditis elegans, 24 h, S5D Fig pink triangle (probably DII 100 μM for 24 h and during assay), read-out: EC50 levamisole paralysis after DII pre-exposure), 82.2 ± 1.39 µM. The EC50 in the experiment on C. elegans [5] (Caenorhabditis elegans, S5D Fig black circle (probably control without DII), read-out: EC50 levamisole paralysis) stood at 82.4 ± 1.23 µM. Further, the body length result in the experiment with C. elegans [6] is given as “worm shrinkage”. For the same molecule, the “paralysis in cut specimens” value with C. elegans [7] was “paralysis is achieved at very low levamisole concentrations”.

As for `CCCSc1ccc2nc(NC(=O)OC)[nH]c2c1` [albendazole], the C. elegans death result in the experiment on C. elegans [3] is “less than 25%”.

Regarding ivermectin, the C. elegans death result in the experiment with C. elegans [3] was “less than 25%”.

In the case of `CN1CCCN=C1/C=C/c1cccs1` [pyrantel], in the experiment on C. elegans [3], the C. elegans death entry was “less than 25%”.

`Cc1cc(C)c(-n2ccnc2)c(C)c1` [Compound 10, mesityl-imidazole]: the “OP50 growth in screening wells” value in the experiment on E. coli OP50 was “inhibited”. The worm death in the experiment on C. elegans [8] amounted to 100%. Moreover, the “MIC E. coli” value in experiment [1] (listed as MI (10)) was determined as 128 µg/mL (≈ 687 µM). The MBC in [1] and in [2] was greater than 256 µg/mL throughout. For the same molecule, the MIC in experiment [1] is 128 µg/mL and 680 µM; in experiment [2], 128 µg/mL (≈ 687 µM).
